Experimental data reported in patent US20030235583A1, “Combined use of a modulator of CD3 and a beta cell resting compound” (priority 2002, published 2003).

Experiments:
human islets = experiment: apoptosis of human islets incubated in high glucose; assay type: cell-based; settings: co-incubated with compound vs not co-incubated
Description: Another potential way to intervene in the destruction of beta-cells in the development of Type 1 diabetes is by treatment with compounds that inhibit insulin secretion, thereby inducing beta-cell rest.

beta-cells = settings: 3 months treatment; cited from earlier work

Row | Compound | apoptosis, or programmed cell death, of human islets (human islets) | residual C-peptide, a marker of beta-cell function (beta-cells)
1 | CC1(NC2=NS(=O)(=O)c3sc(Cl)cc3N2)CC1 [6-chloro-3-(1-methylcyclopropyl)amino-4H-thieno[3,2-e]-1,2,4-thiadiazine 1,1-dioxide] | significantly less apoptosis | 
2 | CC1=NS(=O)(=O)c2cc(Cl)ccc2N1 [diazoxide] |  | preservation of residual C-peptide
